Measurements published in patent US20250032524A1, “BROAD SPECTRUM AMINOGLYCOSIDES AND USES THEREOF” (REVAGENIX, INC., priority 2022, published 2025).
Where two headings read alike, the source gives them in different places.

Assays:
Type in all cases: cell-based
[1] = system: all sets of organisms tested (SENTRY clinical isolates); test: Antibacterial surveillance, overall statement; conditions: all sets of organisms tested (Table 3); read-out: MIC50,90 values
Experimental: (§1) Minimum inhibitory concentrations for representative example compounds herein were determined by a broth microdilution method in accordance with the Clinical and Laboratory Standards Institute (CLSI) guidelines. In brief, organism suspensions were adjusted to a 0.5 McFarland standard to yield a final inoculum between 3×10^5 and 7×10^5 colony-forming units (CFU)/mL. The inoculum was prepared by suspension of a colony from an agar plate that was prepared the previous day. Compound dilutions and inoculum were prepared in sterile, cation adjusted Mueller-Hinton Broth (Beckton Dickinson).
(§2) Bacteria were suspended in sterile saline and added to each assay plate to obtain a final concentration of 5×10^5 CFU/mL. An inoculum volume of 100 μL was added to wells containing 100 μL of broth with 2-fold serial dilutions of the test compound. All inoculated microdilution trays were incubated in ambient air at 35° C. for 18-24 hours. Following incubation, the lowest concentration of the compound that prevented visible growth (OD 600 nm<0.05) is recorded was the MIC. […] Performance of the assay was monitored by the use of laboratory quality-control strains and a standard compound with a defined MIC spectrum (neomycin), in accordance with CLSI guidelines.
Several compounds of the disclosure (Compound 1, 2, and 3) were further evaluated against several hundred bacterial isolates (isolated in the United States and Europe, 1:1) selected from the SENTRY Antimicrobial Surveillance Program (JMI Laboratories, North Liberty, Iowa). The set of clinical isolates included 300 randomly selected Enterobacterales, 103 randomly selected P. aeruginosa, 100 randomly selected A. baumannii-calcoaceticus, 20 randomly selected Methicillin-sensitive S. aureus (MSSA), and 30 randomly selected Methicillin-resistant S. aureus (MRSA). In addition, 101 Enterobacterales and 50 P. aeruginosa isolates with genetically defined mechanisms of aminoglycoside resistance were included. […]

[2] = system: clinical isolates of multi-drug resistant bacterial pathogens including A. baumannii, MRSA, P. aeruginosa, and CRE; test: MIC secondary panel, overall statement; conditions: read-out: minimum inhibitory concentration (MIC) values
Experimental: as §1, §2
Several compounds of the disclosure (Compounds 1, 2, 3, and 6) were further evaluated against a secondary panel of clinical isolates of multi-drug resistant bacterial pathogens including A. baumannii, methicillin-resistant Staphylococcus aureus (MRSA), P. aeruginosa, and carbapenem-resistant Enterobacteriaceae (CRE).

[3] = system: A. baumannii-calcoaceticus; test: Antibacterial surveillance of clinical isolates (MIC50/90); conditions: 100 isolates
Experimental: as §1, §2
(§3) Several compounds of the disclosure (Compound 1, 2, and 3) were further evaluated against several hundred bacterial isolates (isolated in the United States and Europe, 1:1) selected from the SENTRY Antimicrobial Surveillance Program (JMI Laboratories, North Liberty, Iowa). The set of clinical isolates included 300 randomly selected Enterobacterales, 103 randomly selected P. aeruginosa, 100 randomly selected A. baumannii-calcoaceticus, 20 randomly selected Methicillin-sensitive S. aureus (MSSA), and 30 randomly selected Methicillin-resistant S. aureus (MRSA). In addition, 101 Enterobacterales and 50 P. aeruginosa isolates with genetically defined mechanisms of aminoglycoside resistance were included. The MIC values at which ≥50% (MIC50) and ≥90% (MIC90) of isolates within a given set are inhibited were determined for each compound against each set of organisms.

P. aeruginosa [4] = test: as above; conditions: Pseudomonas aeruginosa, 103 isolates
Experimental: as §1, §2, §3

[5] = system: AG-resistant Enterobacterales; test: as above
Experimental: as §1, §2, §3

[6] = system: AG-resistant P. aeruginosa; test: as above; conditions: Pseudomonas aeruginosa, 50 isolates with defined aminoglycoside resistance
Experimental: as §1, §2, §3

Enterobacterales = test: as above
Experimental: as §1, §2, §3

[7] = system: Methicillin-sensitive S. aureus (MSSA); test: as above; conditions: Staphylococcus aureus, MSSA, 20 isolates
Experimental: as §1, §2, §3

[8] = system: Methicillin-resistant S. aureus (MRSA); test: as above; conditions: Staphylococcus aureus, MRSA, 30 isolates
Experimental: as §1, §2, §3

A. baumannii = test: MIC broth microdilution (CLSI); conditions: Acinetobacter baumannii
Outline: (§4)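 Susceptibility was measured by microdilution in cation-adjusted Mueller-Hinton broth following CLSI guidance, with bacteria at 5×10^5 CFU/mL and incubation at 35° C. for 18-24 hours. Growth inhibition was scored visually, using an OD 600 nm<0.05 cut-off.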

C. freundii = test: MIC broth microdilution (CLSI); conditions: Citrobacter freundii, read-out: Activity (MIC)
Outline: as §4

P. aeruginosa [9] = test: MIC broth microdilution (CLSI); conditions: Pseudomonas aeruginosa
Outline: as §4

P. mirabilis = test: MIC broth microdilution (CLSI); conditions: Proteus mirabilis; strain APMI1048, MDR Clinical isolate (CDC CRE panel), CDC AR Bank 0159
Outline: as §4

K. aerogenes = test: MIC broth microdilution (CLSI); conditions: Klebsiella aerogenes; strain AEAE1042, MDR Clinical isolate (CDC CRE panel), CDC AR Bank 0161
Outline: as §4

S. enterica = test: MIC broth microdilution (CLSI); conditions: Salmonella enterica, read-out: Activity (MIC)
Outline: as §4

S. aureus = test: MIC broth microdilution (CLSI); conditions: for MIC: Staphylococcus aureus
Outline: as §4

E. cloacae = test: MIC broth microdilution (CLSI); conditions: Enterobacter cloacae; strain AECL1089, MDR Clinical isolate (CDC CRE panel), CDC AR Bank 0154
Outline: as §4

Compound: NCC[C@H](O)C(=O)N[C@@H]1[C@@H](O)[C@H](N)[C@@H](O[C@H]2O[C@H](CN)CC[C@H]2N)[C@H](O[C@@H]2O[C@H](CO)[C@@H](O[C@H]3O[C@@H](CN)[C@@H](O)[C@H](O)[C@H]3N)[C@H]2O)[C@H]1O [Compound 2, (S)-4-amino-N-((1R,2S,3S,4R,5R,6S)-3-amino-5-(((2S,3R,4S,5R)-4-(((2R,3R,4R,5S,6S)-3-amino-6-(aminomethyl)-4,5-dihydroxytetrahydro-2H-pyran-2-yl)oxy)-3-hydroxy-5-(hydroxymethyl)tetrahydrofuran-2-yl)oxy)-4-(((2R,3R,6S)-3-amino-6-(aminomethyl)tetrahydro-2H-pyran-2-yl)oxy)-2,6-dihydroxycyclohexyl)-2-hydroxybutanamide]
- MIC50 [1]: ≤ 16 µg/mL
- MIC [2]: ≤ 16 µg/mL
- MIC50 ([3]; read-out: MIC50): < 16 µg/mL
- MIC90 ([3]; read-out: MIC90): < 16 µg/mL
- MIC50 (P. aeruginosa [4]; read-out: MIC50): < 16 µg/mL
- MIC90 (P. aeruginosa [4]; read-out: MIC90): < 16 µg/mL
- MIC50 [5]: < 16 µg/mL
- MIC90 [5]: < 16 µg/mL
- MIC50 ([6]; read-out: MIC50): < 16 µg/mL
- MIC90 ([6]; read-out: MIC90): < 16 µg/mL
- MIC50 (Enterobacterales): < 16 µg/mL
- MIC90 (Enterobacterales): < 16 µg/mL
- MIC50 ([7]; read-out: MIC50): < 16 µg/mL
- MIC90 ([7]; read-out: MIC90): < 16 µg/mL
- MIC50 ([8]; read-out: MIC50): < 16 µg/mL
- MIC90 ([8]; read-out: MIC90): < 16 µg/mL
- MIC (A. baumannii; read-out: Activity (MIC), strain NABA0007, ΔadeJK efflux): < 16 µg/mL
- MIC (A. baumannii; read-out: Activity (MIC), strain NABA1427, MDR Clinical isolate): < 16 µg/mL
- MIC (A. baumannii; read-out: Activity (MIC), strain NABA1433, MDR Clinical isolate): < 16 µg/mL
- MIC (A. baumannii; read-out: Activity (MIC), strain NABA1434, MDR Clinical isolate): < 16 µg/mL
- MIC (A. baumannii; read-out: Activity (MIC), strain NABA1436, MDR Clinical isolate): < 16 µg/mL
- MIC (A. baumannii; read-out: Activity (MIC), strain NABA1437, MDR Clinical isolate): < 16 µg/mL
- MIC (A. baumannii; read-out: Activity (MIC), strain NABA1438, MDR Clinical isolate): < 16 µg/mL
- MIC (A. baumannii; read-out: Activity (MIC), strain NABA1439, MDR Clinical isolate): < 16 µg/mL
- MIC (A. baumannii; read-out: Activity (MIC), strain NABA1448, MDR Clinical isolate): < 16 µg/mL
- MIC (A. baumannii; read-out: Activity (MIC), strain NABA1449, MDR Clinical isolate): < 16 µg/mL
- MIC (A. baumannii; read-out: Activity (MIC), strain NABA1450, MDR Clinical isolate): < 16 µg/mL
- MIC (A. baumannii; strain NABA0006, WT parent, read-out: Activity (MIC)): < 16 µg/mL
- MIC (A. baumannii; strain NABA0020, AME negative strain, read-out: Activity (MIC)): < 16 µg/mL
- MIC (C. freundii): < 16 µg/mL
- MIC (P. aeruginosa [9]; read-out: Activity (MIC), strain NPAE0006, Efflux KO, Aph(3')-IIb): < 16 µg/mL
- MIC (P. aeruginosa [9]; read-out: Activity (MIC), strain NPAE0010, MexXY over-expressed, Aph(3')-IIb): < 16 µg/mL
- MIC (P. aeruginosa [9]; read-out: Activity (MIC), strain NPAE1288, MDR Clinical isolate): < 16 µg/mL
- MIC (P. aeruginosa [9]; read-out: Activity (MIC), strain NPAE1293, MDR Clinical isolate): < 16 µg/mL
- MIC (P. aeruginosa [9]; read-out: Activity (MIC), strain NPAE1299, MDR Clinical isolate): < 16 µg/mL
- MIC (P. aeruginosa [9]; read-out: Activity (MIC), strain NPAE1302, MDR Clinical isolate): < 16 µg/mL
- MIC (P. aeruginosa [9]; read-out: Activity (MIC), strain NPAE1303, MDR Clinical isolate): < 16 µg/mL
- MIC (P. aeruginosa [9]; read-out: Activity (MIC), strain NPAE1308, MDR Clinical isolate): < 16 µg/mL
- MIC (P. aeruginosa [9]; read-out: Activity (MIC), strain NPAE1310, MDR Clinical isolate): < 16 µg/mL
- MIC (P. aeruginosa [9]; read-out: Activity (MIC), strain NPAE1313, MDR Clinical isolate): < 16 µg/mL
- MIC (P. aeruginosa [9]; read-out: Activity (MIC), strain NPAE1316, MDR Clinical isolate): < 16 µg/mL
- MIC (P. aeruginosa [9]; read-out: Activity (MIC), strain NPAE1323, MDR Clinical isolate): < 16 µg/mL
- MIC (P. aeruginosa [9]; strain NPAE0001, WT Aph(3')-IIb, QC, read-out: Activity (MIC)): < 16 µg/mL
- MIC (P. aeruginosa [9]; strain NPAE0002, WT Aph(3')-IIb, read-out: Activity (MIC)): < 16 µg/mL
- MIC (P. aeruginosa [9]; strain NPAE0359, aph(3')-IIb KO (tetR), read-out: Activity (MIC)): < 16 µg/mL
- MIC (P. mirabilis): < 16 µg/mL
- MIC (K. aerogenes): < 16 µg/mL
- MIC (S. enterica): < 16 µg/mL
- MIC (S. aureus; ATCC29213, strain NSAU001, wild-type, QC, ATCC 29213): < 16 µg/mL
- MIC (S. aureus; strain NSAU1004, MDR Clinical isolate): < 16 µg/mL
- Activity (MIC) (S. aureus; strain NSAU1015, MDR Clinical isolate): + (MIC threshold for positive activity (+) is ≤16 μg/mL)
- Activity (MIC) (S. aureus; strain NSAU1023, MDR Clinical isolate): + (MIC threshold for positive activity (+) is ≤16 μg/mL)
- Activity (MIC) (S. aureus; strain NSAU1063, MDR Clinical isolate): + (MIC threshold for positive activity (+) is ≤16 μg/mL)
- MIC (E. cloacae): < 16 µg/mL
